The record followed here is article PMC9738107, “Targeting of the ELR+CXCL/CXCR1/2 Pathway Is a Relevant Strategy for the Treatment of Paediatric Medulloblastomas” (Cells, 2022).

What all share (assay type): cell-based, human
One assay concerns DR1 and DR2 cells. Description: CXCL8-dependent migration in Boyden chamber. The conditions noted are these: DR1 and DR2, 1 µM, 200 ng/mL CXCL8. How it is done:
Figure 8 C29 is efficient on radioresistant MB cell lines. (A) Cell death after 48 h of treatment with control (DMSO, CT) or C29 1, 2.5, or 5 µM on radiation-resistant cells (RR) and normal cells (N), n = 3. Statistics were performed using the one-way method ANOVA. * p < 0.05, ** p < 0.01, *** p < 0.001. For this figure, DR1 = D1, DR2 = D2, HR1 = H1, HR2 = H2, and C8D1A = C8. (B) Proliferation of DR1/DR2 (A) and HR1/HR2 (B) radio-resistant cells after 1 µM C29 treatment or control (DMSO), n = 3. (C) Clonogenic assay on DR1, DR2 (n = 3) and HR1, HR2 (n = 3) cells after treatment with control (DMSO) or C29 (1 µM or 2.5 µM). […] Results are expressed as percentage of control (n = 3). […]
1500 Daoy, ONS ‐76, HD ‐MB03 or D341 Med cells were sown in triplicate in plates with six wells and the cells were counted daily for 8 days using a Coulter counter (Ville‐ pinte). The relative number of cells (compared to day 1) was determined daily. […]
Y = Y0 * exp(k * X) (Y= Cell number at day X; Y0= Cell number at day 0 (graphically calculated); X= Day following cell plating (cells plated at X0=0); k= Exponential growth constant rate. Doubling times were compared.
150 Daoy/DR1/DR2/ ONS ‐ 76 and 300 HD ‐ MB03/HR1/HR2 cells were seeded in trip‐ licate in 6‐well plates in the presence or absence of treatment (1 or 2∙5μM MCK140 or DMSO as control). […] The number of clones was quantified using ImageJ software. […]

A further assay has as its system ONS-76 cells. Description: Spheroid invasion, 3D culture. The conditions noted are these: ONS-76, 1 µM, from day 7. The method, then:
(§1) Figure 4 C29 reduces proliferation, migration, and invasion of naïve MB cells. (A) Proliferation of Daoy, ONS-76, HD-MB03, and D341Med wild-type cells after treatment with 1 μM C29 or the control (DMSO), n = 3. (B) Clonogenic assay on Daoy (n = 4), ONS-76 (n = 3) and HD -MB03 (n = 5) cells after treatment with control (DMSO) or C29 (1 μM or 2.5 μM). Scale = 500 μm. (C) Cell migration through the Boyden chamber of Daoy and ONS-76 cells specifically attracted by 200 ng/mL CXCL8. Results are expressed as percentage of control (DMSO) (n = 3). Scale = 1000 μm. (D) Spheroid invasion using 3D culture cell assays on Daoy (n = 4) and ONS-76 cells (n = 3) treated with control (DMSO) or C29 at a concentration of 1 μM on day 0, 1, and 2. Results are expressed as percentage of day 0, n = 4. Scale = 500 μm. Statistics were performed using Student t-test for 2 comparisons only or ANOVA test for multiple comparisons. * p < 0.05, ** p < 0.01, *** p < 0.001. […]
(§2) each month by using PlasmoTest Kit (#10L07‐MM, InvivoGen, Toulouse, France). Daoy and ONS‐76 belong to the Shh genetic subgroup, D341‐Med and HD‐MB03 to group 3. […]
(§3) (1, 2∙5, 5μM) for 48 hours. […]
(§4) 5000 cells were plated in 48 multi‐well plates coated with agarose 0∙8%. […] Images were recorded each day with the Evos XL Core Cell Imaging system (Thermo Fisher).

In the next assay the test system is Daoy cells. Description: Spheroid invasion, 3D culture. To be noted: 1 µM, from day 2. The method, then: as §1, §2, §3, §4

With `O=C(Nc1cccc(Cl)c1)Nc1nc2ccc([N+](=O)[O-])cc2s1` [C29, 1-(3-chlorophenyl)-3-(6-nitrobenzo[d]thiazol-2-yl) urea], the CXCL8-dependent migration result in the assay with DR1 and DR2 cells is “significantly inhibited”. The Spheroid invasion ability entry in the assay on ONS-76 cells and in the assay on Daoy cells was “affected the invasion ability” throughout.
